From patent US20080004235A1, “TOPICAL COMPOSITIONS COMPRISING ONE OR MORE OF 4-THIOURIDINE, ISOMALTITOL AND URIDINE” (priority 2005, published 2008)

Key:
skin = experiment: Preliminary safety evaluation of topical exposure (SLS or UVB provoked skin), methodological study on humans; format: in vivo, human
Text: Skin irritation and dermatitis is a common problem among health care professionals due to frequent washing. We have utilized two well-established skin irritation models to investigate the effect of topically administered uridine or isomalt on skin physiology including measurement of dermal blood flow. Isomalt consists of 1,6-glucopyranosyl-D-sorbitol (GPS, isomaltitol) and 1,1-glucopyranosyl-D-mannitol (GPM) in a 1:1 ratio. The methodological study involves the study of various physiological parameters, such as dermal blood flow and visual assessment of erythema, subsequent to provocation by either exposure to UVB light or Sodium Lauryl Sulphate (SLS) and the effects of isomalt and uridine on these parameters. Only a very small area of the skin was exposed to the irritants UVB or SLS. The methodological study has been approved by the Medical Products Agency, Sweden and the Regional Ethical Review Board, Linköping, Sweden.
UVB provocation with a divergent beam produces a circular, radially fading skin erythema, the diameter of which corresponds to the minimal erythemal dose. […] SLS, which is a detergent, creates a local skin irritation mainly by disturbing the skins barrier function. A methodological study has been performed, both to evaluate the effects of uridine or isomalt on skin UVB-induced erythema and SLS irritation. […]

[1] = cited from earlier work
rats = conditions: rat, in vivo; cited from earlier work

Question: For isomalt, which “untoward effects such as exacerbated skin irritation or itching related to the exposure” value (skin; in vivo) is on record?
Answer: no untoward effects

Question: With `OC[C@H](O)[C@@H](O)[C@H](O)[C@H](O)CO[C@H]1O[C@H](CO)[C@@H](O)[C@H](O)[C@H]1O` [isomaltitol, 6-O-α-D-glucopyranosyl-D-sorbitol] as the compound, how does the “rise in blood glucose and insulin levels” value ([1]; compared to sugars and other carbohydrates) read?
Answer: only a very small rise

Question: What about the absorption ([1]; in vivo) of the same compound?
Answer: very slow and limited

Question: And the toxic effect (rats)?
Answer: doesn't seem to have any toxic effect

Question: Which “untoward effects such as exacerbated skin irritation or itching related to the exposure” value (skin; saturated solution, topical exposure for 24 hours, all individuals) does the source give for `O=c1ccn([C@@H]2O[C@H](CO)[C@@H](O)[C@H]2O)c(=O)[nH]1` [uridine] here?
Answer: no untoward effects
